Assays:
barnyardgrass = test: Test A pre-/postemergence herbicide test; assay type: in vivo, Echinochloa crus-galli; conditions: for Plant response rating, Barnyardgrass: 0 to 100 scale
How it was run: (§1)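 Approximately 10 days after treatment in the greenhouse, plants were compared with untreated controls and given a 0–100 visual injury rating. Applications: preemergence directed soil spray; postemergence on 2–10 cm plants at the one- to two-leaf stage.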

pigweed = test: Test A pre-/postemergence herbicide test; assay type: in vivo, Amaranthus retroflexus; conditions: for Plant response rating, Pigweed: 0 to 100 scale
How it was run: as §1

corn [1] = test: Test A pre-/postemergence herbicide test; assay type: in vivo, Zea mays; conditions: Postemergence
How it was run: as §1

ducksalad = test: Test B flooded paddy test; assay type: in vivo, Heteranthera limosa; conditions: 500 g ai/ha, Flood; scale of 0 to 100 where 0 is no effect and 100 is complete control
How it was run: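 Visual ratings from 0, meaning no effect, up to 100, meaning complete control, were made by comparison with untreated controls 13 to 15 days after treatment. Test compounds went straight into floodwater standing 3 cm over the soil of pots holding 2-leaf seedlings.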

blackgrass = test: Test C pre-/postemergence herbicide test; assay type: in vivo, Alopecurus myosuroides
How it was run: (§2)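 Plants grown and held in a greenhouse for 13 to 15 days post-spray, then rated 0–100 by visual comparison with controls. Pre treatments targeted seeds in loam and sand; post treatments targeted 1- to 4-leaf plants in peat-based potting medium.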

corn [2] = test: Test C pre-/postemergence herbicide test; assay type: in vivo, Zea mays
How it was run: as §2

lambsquarters = test: Test C pre-/postemergence herbicide test; assay type: in vivo, Chenopodium album
How it was run: as §2

morningglory = test: Test C pre-/postemergence herbicide test; assay type: in vivo, Ipomoea coccinea
How it was run: as §2

nutsedge, yellow = test: Test C pre-/postemergence herbicide test; assay type: in vivo, Cyperus esculentus
How it was run: as §2

soybean = test: Test C pre-/postemergence herbicide test; assay type: in vivo, Glycine max
How it was run: as §2

oilseed rape = test: Test C pre-/postemergence herbicide test; assay type: in vivo, Brassica napus
How it was run: as §2

[3] = 125 g ai/ha, visual rating, 0 no effect, 100 complete control, approximately 10 days, preemergence
[4] = Postemergence, 125 g ai/ha, 0 is no effect, 100 is complete control
[5] = preemergence, 500 g ai/ha, 0 is no effect and 100 is complete control
[6] = Postemergence, 31 g ai/ha, scale 0 to 100 (0 no effect, 100 complete control)
[7] = Postemergence, 62 g ai/ha, scale 0 (no effect) to 100 (complete control)
[8] = Postemergence, 125 g ai/ha, scale 0 to 100 (0 no effect, 100 complete control)
[9] = Postemergence, 250 g ai/ha, scale 0 to 100 (0 no effect, 100 complete control)
[10] = Preemergence, 31 g ai/ha, scale 0 to 100, 0 is no effect and 100 is complete control
[11] = Preemergence, 125 g ai/ha, scale 0 to 100 (0 no effect, 100 complete control)
[12] = Preemergence, 62 g ai/ha, scale 0 to 100 (0 no effect, 100 complete control)

For `O=C1NCC(c2ccc(C(F)(F)F)cc2)C1C(=O)Nc1ccc(F)c(F)c1F` (stereo not shown) [Compound 232], the “Plant response rating, Barnyardgrass” value (barnyardgrass; [3]) was 90, the “Plant response rating, Barnyardgrass” value (barnyardgrass; [4]) was 80 and the “Barnyardgrass plant response rating (0 to 100 scale, 0 is no effect, 100 is complete control)” value (barnyardgrass; Postemergence, 500 g ai/ha) was 90. For the same compound, the “Plant response rating, Barnyardgrass” value (barnyardgrass; [5]) was 90, the “Plant response rating, Pigweed” value (pigweed; [3]) was 50 and the “Plant response rating, Pigweed” value (pigweed; [4]) was 80. The “Pigweed plant response rating (0 to 100 scale, 0 is no effect, 100 is complete control)” value (pigweed; Postemergence, 500 g ai/ha) was 90, the “Plant response rating, Pigweed” value (pigweed; [5]) was 60 and the “Plant response rating, Corn” value (corn [1]; 125 g ai/ha, 0 to 100 scale, 0 is no effect, 100 is complete control) was 80. The “Corn plant response rating (0 to 100 scale, 0 is no effect, 100 is complete control)” value (corn [1]; 500 g ai/ha) was 80, the “Plant response rating, Ducksalad” value (ducksalad) was 100 and the “Plant response rating, Blackgrass” value (blackgrass; [6]) was 0. For the same compound, the “Plant response rating, Blackgrass” value (blackgrass; [7]) was 0, the “Plant response rating, Blackgrass” value (blackgrass; [8]) was 0 and the “Plant response rating, Blackgrass” value (blackgrass; [9]) was 0. The “Blackgrass plant response rating” value (blackgrass; [10]) was 60, the “Plant response rating, Blackgrass” value (blackgrass; Preemergence, 62 g ai/ha, scale 0 to 100) was 70 and the “Plant response rating, Blackgrass” value (blackgrass; [11]) was 70. The “Plant response rating (scale of 0 to 100), Blackgrass” value (blackgrass; Preemergence, 250 g ai/ha) was 85, the “Plant response rating, Corn” value (corn [2]; [6]) was 0 and the “Plant response rating, Corn” value (corn [2]; [7]) was 0. For the same compound, the “Plant response rating, Corn” value (corn [2]; [8]) was 0, the “Plant response rating, Corn” value (corn [2]; [9]) was 0 and the “Corn plant response rating” value (corn [2]; [10]) was 0. For the same compound, the “Corn plant response rating” value (corn [2]; [12]) was 35, the “Plant response rating, Corn” value (corn [2]; [11]) was 70 and the “Plant response rating (scale of 0 to 100), Corn” value (corn [2]; Preemergence, 250 g ai/ha) was 75. The “Plant response rating, Lambsquarters” value (lambsquarters; [6]) was 80, the “Plant response rating, Lambsquarters” value (lambsquarters; [7]) was 85 and the “Plant response rating, Lambsquarters” value (lambsquarters; [8]) was 85. For the same compound, the “Plant response rating, Lambsquarters” value (lambsquarters; [9]) was 85, the “Lambsquarters plant response rating” value (lambsquarters; [10]) was 75 and the “Lambsquarters plant response rating” value (lambsquarters; [12]) was 85. The “Plant response rating, Lambsquarters” value (lambsquarters; [11]) was 90, the “Plant response rating (scale of 0 to 100), Lambsquarters” value (lambsquarters; Preemergence, 250 g ai/ha) was 90 and the “Plant response rating, Morningglory” value (morningglory; [6]) was 15. For the same compound, the “Plant response rating, Morningglory” value (morningglory; [7]) was 0, the “Plant response rating, Morningglory” value (morningglory; [8]) was 25 and the “Plant response rating, Morningglory” value (morningglory; [9]) was 60. The “Morningglory plant response rating” value (morningglory; [10]) was 0, the “Morningglory plant response rating” value (morningglory; [12]) was 15 and the “Plant response rating, Morningglory” value (morningglory; [11]) was 15. For the same compound, the “Plant response rating (scale of 0 to 100), Morningglory” value (morningglory; Preemergence, 250 g ai/ha) was 20, the “Plant response rating, Nutsedge, Yellow” value (nutsedge, yellow; [6]) was 0 and the “Plant response rating, Nutsedge, Yellow” value (nutsedge, yellow; [7]) was 0. For the same compound, the “Plant response rating, Nutsedge, Yellow” value (nutsedge, yellow; [8]) was 5, the “Plant response rating, Nutsedge, Yellow” value (nutsedge, yellow; [9]) was 5 and the “Nutsedge, Yellow plant response rating” value (nutsedge, yellow; [10]) was 0. The “Nutsedge, Yellow plant response rating” value (nutsedge, yellow; [12]) was 0, the “Plant response rating, Nutsedge, Yellow” value (nutsedge, yellow; [11]) was 0 and the “Plant response rating (scale of 0 to 100), Nutsedge, Yellow” value (nutsedge, yellow; Preemergence, 250 g ai/ha) was 100. For the same compound, the “Plant response rating, Soybean” value (soybean; [6]) was 0, the “Plant response rating, Soybean” value (soybean; [7]) was 10 and the “Plant response rating, Soybean” value (soybean; [8]) was 10. For the same compound, the “Plant response rating, Soybean” value (soybean; [9]) was 20, the “Soybean plant response rating” value (soybean; [10]) was 0 and the “Soybean plant response rating” value (soybean; [12]) was 0. The “Plant response rating, Soybean” value (soybean; [11]) was 0, the “Plant response rating (scale of 0 to 100), Soybean” value (soybean; Preemergence, 250 g ai/ha) was 5 and the “Plant response rating, Oilseed Rape” value (oilseed rape; [6]) was 0. For the same compound, the “Plant response rating, Oilseed Rape” value (oilseed rape; [7]) was 50, the “Plant response rating, Oilseed Rape” value (oilseed rape; [8]) was 65 and the “Plant response rating, Oilseed Rape” value (oilseed rape; [9]) was 40. For the same compound, the “Oilseed Rape plant response rating” value (oilseed rape; [10]) was 30, the “Oilseed Rape plant response rating” value (oilseed rape; [12]) was 30 and the “Plant response rating, Oilseed Rape” value (oilseed rape; [11]) was 50. The “Plant response rating (scale of 0 to 100), Oilseed Rape” value (oilseed rape; Preemergence, 250 g ai/ha) was 85.
